The text below walks through data of patent US6841172B1, “Method for iron delivery to a patient by transfer from dialysate” (HemoCleanse, Inc., priority 1996, dated 2005).

The subject of data set [1] is red blood cells. In words: Monitoring of hemolysis in experimental dialysis (plasma absorbance at 420 and 585 nm). Set-up: species or system bovine. The conditions noted are these: compared with similar experiments without iron in the dialysate. The source says: To determine whether the method of Example 1 would cause hemolysis (lysis of red blood cells with the liberation of hemoglobin), absorbance data at 420 and 585 nm was collected for the plasma at various stages of the experiment described in Example 1.

The nature of data set [2]: Transfer of ferrous gluconate from dialysate into blood by hemodialysis through a PAN membrane dialyzer. It counts as in vitro ADME, bovine. On the procedure: A two liter volume of bovine blood (hematocrit adjusted from 49 to 40 with saline) which had been stored with heparin anticoagulation for 24 hours was dialyzed using a PAN membrane dialyzer. The volume was maintained at 2 liters throughout the experiment by adding saline.
A sample of the blood was taken prior to dialysis of the blood and tested for iron content. The iron content of the pre-dialysis blood was 110 μg/dl and the transferrin iron binding capacity was 234 μg/dl. Dialysis was then started using the following equipment and conditions:
The circuit was primed with dialysate, prepared as described above, pumps were adjusted for proper flow, and then the blood side was drained of dialysate by pulling the Blood In tube out of the dialysis bath and allowing air to fill this side.
Assays were performed to determine plasma iron concentrations at 0, 5, 10, 20 and 30 minutes. […] This transfer indicates an avidity of plasma for the iron complex, even higher than the iron binding capacity of transferrin.

For ferrous gluconate, in data set [1], the “level of hemolysis during dialysis” value is “not higher than that of similar experiments conducted without iron in the dialysate”. For the same substance, the plasma iron level in data set [2] (after 30 minutes of dialysis, dialysate iron 125 μg/dl, pre-dialysis blood iron 110 μg/dl, transferrin iron binding capacity 234 μg/dl) is ~500 µg/dL. The “percent saturation of transferrin” value in data set [2] (after only a few minutes of hemodialysis, dialysate iron 125 μg/dl) is 100%. Also, in data set [2] (dialysate ferrous gluconate increased to 4 mg/dl), the “iron transferred per dialysis treatment” value came to 15 mg. In addition, the “iron transferred to the plasma” value in data set [2] (if the initial rate of iron transfer is continued for 180 minutes, dialysate 1 mg/dl ferrous gluconate) is “approximately 4 mg”.
